What was measured:
COX-2 [1] = target: T1, COX-2 (Homo sapiens, UniProt P35354); experiment: Human whole blood assay, COX-2 (LPS-induced PGE2 production); assay type: cell-based; parameters: incubation of human whole blood with LPS, which induces COX-2; from tissue; host or cells: fresh human whole blood (volunteers), incubated with LPS; conditions: LPS-induced PGE2, 24 hours at 37° C, read-out: COX-2 (IC50 μM) HWB
T1 sequence (P35354 18-604): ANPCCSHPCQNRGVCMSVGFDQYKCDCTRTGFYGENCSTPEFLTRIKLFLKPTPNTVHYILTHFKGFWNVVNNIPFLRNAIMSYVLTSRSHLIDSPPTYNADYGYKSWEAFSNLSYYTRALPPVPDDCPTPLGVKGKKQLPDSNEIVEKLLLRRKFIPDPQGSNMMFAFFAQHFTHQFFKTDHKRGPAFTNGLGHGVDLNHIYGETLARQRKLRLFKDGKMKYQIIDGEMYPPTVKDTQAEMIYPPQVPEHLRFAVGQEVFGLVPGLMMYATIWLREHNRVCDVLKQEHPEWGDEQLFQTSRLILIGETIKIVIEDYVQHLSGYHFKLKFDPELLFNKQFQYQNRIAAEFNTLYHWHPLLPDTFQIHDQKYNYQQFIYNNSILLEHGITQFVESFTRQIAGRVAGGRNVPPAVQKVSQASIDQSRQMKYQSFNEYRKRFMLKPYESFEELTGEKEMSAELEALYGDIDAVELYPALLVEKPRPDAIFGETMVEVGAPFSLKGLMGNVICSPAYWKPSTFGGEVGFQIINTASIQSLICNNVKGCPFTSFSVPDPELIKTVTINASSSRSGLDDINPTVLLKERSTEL
Description: As well, platelets in whole blood contain a large amount of the COX-1 enzyme. Immediately following blood clotting, platelets are activated through a thrombin-mediated mechanism. This reaction results in the production of thromboxane B2 (TxB2) via activation of COX-1. Thus, the effect of test compounds on TxB2 levels following blood clotting can be examined and used as an index for COX-1 activity. Therefore, the degree of selectivity by the test compound can be determined by measuring the levels of PGE2 after LPS induction (COX-2) and […] following blood clotting (COX-1) in the same assay.
A. COX-2 (LPS-induced PGE2 production)
Fresh blood is collected in heparinized tubes by venipuncture from both male and female volunteers. The subjects have no apparent inflammatory conditions and have not taken any NSAIDs for at least 7 days prior to blood collection. Plasma is immediately obtained from a 2mL blood aliquot to use as blank (basal levels of PGE2). The remaining blood is incubated with LPS (100 μg/ml final concentration, Sigma Chem, #L-2630 from E. coli; diluted in 0.1% BSA (Phosphate buffered saline) for 5 minutes at room temperature. Five hundred μL aliquots of blood are incubated with either 2μL of vehicle (DMSO) or 2 μL of a test compound at final concentrations varying from 10nM to 30 μM for 24 hours at 37° C. At the end of the incubation, the blood is centrifuged at 12,000×g for 5 minutes to obtain plasma. A 100 μL aliquot of plasma is mixed with 400 μL of methanol for protein precipitation. The supernatant is obtained and is assayed for PGE2 using a radioimmunoassay kit (Amersham, RPA#530) after conversion of PGE2 to its methyl oximate derivative according to the manufacturer's procedure. […]

COX-1 = COX-1 (Homo sapiens, UniProt P23219); experiment: Assay of COX-1 activity from U937 cell microsomes; assay type: biochemical; parameters: Assay of COX-1 Activity from U937 cell microsomes; endogenous in cells; host or cells: U937 cells, 100,000×g microsomal pellet; conditions: PGE2, read-out: COX-1 (IC50 μM) U-937
Procedure: Assay of COX-1 Activity from U937 cell microsomes
U 937 cells are pelleted by centrifugation at 500×g for 5 min and washed once with phosphate-buffered saline and repelleted. […] The cell suspension is sonicated 4 times for 10 sec and is centrifuged at 10,000×g for 10 min at 4° C. The supernatant is centrifuged at 100,000×g for 1 hr at 4° C. The 100,000×g microsomal pellet is resuspended in 0.1 M Tris-HCl, pH 7.4, 10 mM EDTA to approximately 7 mg protein/ml and stored at -80° C.
Microsomal preparations are thawed immediately prior to use, subjected to a brief sonication, and then diluted to a protein concentration of 125 μg/ml in 0.1 M Tris-HCl buffer, pH 7.4 containing 10 mM EDTA, 0.5 mM phenol, 1 mM reduced glutathione and 1 μM hematin. Assays are performed in duplicate in a final volume of 250 pl. Initially, 5 µl of DMSO vehicle or drug in DMSO are added to 20 μl of 0.1 M Tris-HCl buffer, pH 7.4 containing 10 mM EDTA in wells of a 96-deepwell polypropylene titre plate. 200 μl of the microsomal preparation are then added and pre-incubated for 15 min at room temperature before addition of 25 μl of […] in 0.1 M Tris-HCl and 10 mM EDTA, pH 7.4. Samples are incubated for 40 min at room temperature and the reaction is stopped by the addition of 25 pl of 1 N HCl. Samples are neutralized with 25 μl of 1 N NaOH prior to quantitation of PGE2 content by radioimmunoassay (Dupont-NEN or Amersham assay kits). Cyclooxygenase activity is defined as the difference between PGE2 levels in samples incubated in the presence of arachidonic acid and ethanol vehicle.
(§1) In the assay, inhibition is determined by measuring the amount of prostaglandin E2 (PGE2) synthesized in the presence of arachidonic acid, cyclooxygenase-I or cyclooxygenase-2 and a putative inhibitor.

COX-2 [2] = target: T1, COX-2; experiment: Whole cell assay for COX-2 using CHO transfected cell line (CHO [hCOX-2]), PGE2; assay type: cell-based; parameters: expressed in transfected cells; host or cells: CHO (Chinese hamster ovary), stably transfected with pCDNAIII vector; CHO [hCOX-2]; conditions: CHO [hCOX-2] cells, 10 μM AA
Procedure: Chinese hamster ovary (CHO) cell lines which have been stably transfected with an eukaryotic expression vector pCDNAIII containing either the human COX-1 or COX-2 cDNA's are used for the assay. These cell lines are referred to as CHO [hCOX-1] and CHO [hCOX-2], respectively. […] Drugs to be tested are dissolved in DMSO to 66.7-fold the highest test drug concentration. […] Cells (0.3×10^6 cells in 200 p) are preincubated with 3 AIl of the test drug or DMSO vehicle for 15 min at 37° C. […] Cells are then challenged in the presence or absence of drug with the AA/HBSS solution to yield a final concentration of 0.5 μM AA in the CHOhCOX-1] assay and a final concentration of 10 μM AA in the CHO [hCOX-2] assay. […] The samples are centrifuged at 300×g at 4° C. for 10 min, and an aliquot of the clarified supernatant is appropriately diluted for the determination of PGE2 levels using an enzyme-liked immunoassay for PGE2 (Correlate PGE2 enzyme immunoassay kit, Assay Designs, Inc.). Cyclooxygenase activity in the absence of test compounds is determined as the difference in PGE2 levels of cells challenged with arachidonic acid versus the PGE2 levels in cells mock-challenged with ethanol vehicle. Inhibition of PGE2 synthesis by test compounds is calculated as a percentage of the activity in the presence of drug versus the activity in the positive control samples.
as §1

Chain of COX-1 (P23219 24-599): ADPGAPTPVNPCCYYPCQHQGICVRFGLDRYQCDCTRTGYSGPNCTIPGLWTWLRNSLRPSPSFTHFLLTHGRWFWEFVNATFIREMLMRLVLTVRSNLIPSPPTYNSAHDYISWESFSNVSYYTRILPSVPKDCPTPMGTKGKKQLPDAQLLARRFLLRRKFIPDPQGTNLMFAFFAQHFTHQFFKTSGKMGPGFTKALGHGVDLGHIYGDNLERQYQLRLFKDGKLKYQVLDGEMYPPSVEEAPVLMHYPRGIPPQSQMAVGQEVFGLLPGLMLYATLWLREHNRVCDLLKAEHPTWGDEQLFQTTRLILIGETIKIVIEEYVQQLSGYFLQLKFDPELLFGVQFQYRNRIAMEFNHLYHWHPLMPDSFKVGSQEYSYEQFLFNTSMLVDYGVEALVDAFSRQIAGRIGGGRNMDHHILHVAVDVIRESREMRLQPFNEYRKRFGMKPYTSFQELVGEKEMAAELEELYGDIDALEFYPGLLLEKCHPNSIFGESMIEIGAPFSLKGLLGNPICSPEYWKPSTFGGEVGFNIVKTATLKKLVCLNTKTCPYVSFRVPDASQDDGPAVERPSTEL

Compound | IC50 (COX-2 [1]) [µM] | IC50 (COX-1) [µM] | IC50 (COX-2 [2]) [µM]
CS(=O)(=O)c1ccc(-c2cnn(CCC(F)(F)F)c(=O)c2-c2ccc(F)cc2)cc1 [Example 19, 4-(4-Fluorophenyl)-5-(4-methylsulfonyl)phenyl-2-(3,3,3-trifluoropropyl)-2H-pyridazin-3-one] | – | > 10 | –
CS(=O)(=O)c1ccc(-c2cnn(C3CC3)c(=O)c2-c2ccc(F)cc2)cc1 [Example 18, 2-Cyclopropyl-5-(4-methylsulfonyl)phenyl-4-(4-fluorophenyl)-2H-pyridazin-3-one] | – | ~10 | –
CS(=O)(=O)c1ccc(-c2cnn(Cc3ccccc3F)c(=O)c2-c2ccccc2)cc1 [Example 17, 2-(2-Fluorobenzyl)-5-(4-methylsulfonyl)phenyl-4-phenyl-2H-pyridazin-3-one] | – | > 10 | –
CS(=O)(=O)c1ccc(-c2cnn(Cc3cccc(F)c3)c(=O)c2-c2ccccc2)cc1 [Example 15, 2-(3-Fluorobenzyl)-5-(4-methylsulfonyl)phenyl-4-phenyl-2H-pyridazin-3-one] | 0.8 | > 10 | 0.009
CS(=O)(=O)c1ccc(-c2cnn(Cc3ccccc3)c(=O)c2Oc2ccc(Cl)cn2)cc1 [Example 23, 2-Benzyl-4-(5-chloro-2-pyridyloxy)-5-(4-methylsulfonyl)phenyl-2H-pyridazin-3-one] | 0.9 | 3 to 10 | 0.26
CC(C)(C)Cn1ncc(-c2ccc(S(C)(=O)=O)cc2)c(-c2ccc(F)cc2)c1=O [Example 24, 2-(2,2-Dimethylpropyl)-4-(4-fluorophenyl)-5-(4-methylsulfonyl)phenyl-2H-pyridazin-3-one] | 2.4 | ~10 | 0.16
CC(c1ccccc1)n1ncc(-c2ccc(S(C)(=O)=O)cc2)c(-c2ccc(F)cc2)c1=O (stereo not shown) [Example 25, 4-(4-Fluorophenyl)-5-(4-methylsulfonyl)phenyl-2-(1-phenyl-ethyl)-2H-pyridazin-3-one] | 1.4 | ~1 | 0.49
CS(=O)(=O)c1ccc(-c2cnn(Cc3cccs3)c(=O)c2-c2ccc(F)cc2)cc1 [Example 27, 4-(4-Fluorophenyl)-5-(4-methylsulfonyl)phenyl-2-(thiophen-2-yl-methyl)-2H-pyridazin-3-one] | – | ~1 | –
CS(=O)(=O)c1ccc(-c2cnn(-c3cccc(F)c3)c(=O)c2-c2ccccc2)cc1 [Example 26, 2-(3-Fluorophenyl)-5-(4-methylsulfonyl)phenyl-4-phenyl-2H-pyridazin-3-one] | 5.5 | > 10 | 0.065
CS(=O)(=O)c1ccc(-c2cnn(Cc3ccc(F)cc3)c(=O)c2-c2ccc(F)cc2)cc1 [Example 16, 2-(4-Fluorobenzyl)-4-(4-fluorophenyl)-5-(4-methylsulfonyl)phenyl-2H-pyridazin-3-one] | 1.1 | 3 to 10 | 0.053
COC(=O)c1ccc(Cn2ncc(-c3ccc(S(C)(=O)=O)cc3)c(-c3ccccc3)c2=O)cc1 [Example 13, 2-(4-Carbomethoxybenzyl)-5-(4-methylsulfonyl)phenyl-4-phenyl-2H-pyridazin-3-one] | > 33 | > 10 | 2
CS(=O)(=O)c1ccc(-c2cnn(Cc3ccncc3)c(=O)c2-c2ccc(F)cc2)cc1 [Example 20, 4-(4-Fluorophenyl)-5-(4-methylsulfonyl)phenyl-2-(4-pyridylmethyl)-2H-pyridazin-3-one] | 16.8 | > 10 | 1.4

The remaining lines, values ahead:

IC50 (COX-2 [1]) [µM] | IC50 (COX-1) [µM] | IC50 (COX-2 [2]) [µM] | Compound
0.35 | – | – | Cc1ccc(-c2c(-c3ccc(S(C)(=O)=O)cc3)cnn(Cc3ccccc3)c2=O)cc1 [Example 35, 2-Benzyl-4-(4-methylphenyl)-5-(4-methylsulfonyl)phenyl-2H-pyridazin-3-one]
3.8 | > 10 | 0.18 | CC(C)Cn1ncc(-c2ccc(S(C)(=O)=O)cc2)c(-c2ccc(F)cc2)c1=O [Example 31, 4-(4-Fluorophenyl)-2-(2-methylpropyl)-5-(4-methylsulfonyl)phenyl-2H-pyridazin-3-one]
– | 0.3 to 1 | – | CS(=O)(=O)c1ccc(-c2cnn(CC3CCCCC3)c(=O)c2-c2ccc(F)cc2)cc1 [Example 36, 2-Cyclohexylmethyl-4-(4-fluorophenyl)-5-(4-methylsulfonyl)phenyl-2H-pyridazin-3-one]
8.6 | > 10 | – | CS(=O)(=O)c1ccc(-c2cnn(CCc3ccccc3)c(=O)c2-c2ccc(F)cc2)cc1 [Example 33, 2-(2-Phenethyl)-4-(4-fluorophenyl)-5-(4-methylsulfonyl)phenyl-2H-pyridazin-3-one]
0.86 | > 10 | – | CS(=O)(=O)c1ccc(-c2cnn(Cc3ccccc3)c(=O)c2Oc2ccc(Br)cn2)cc1 [Example 34, 2-Benzyl-4-(5-bromo-2-pyridyloxy)-5-(4-methylsulfonyl)phenyl-2H-pyridazin-3-one]
1.3 | > 10 | 0.18 | CS(=O)(=O)c1ccc(-c2cnn(CCCC(F)(F)F)c(=O)c2-c2ccc(F)cc2)cc1 [Example 29, 4-(4-Fluorophenyl)-5-(4-methylsulfonyl)phenyl-2-(4,4,4-trifluorobutyl)-2H-pyridazin-3-one]

Reference: patent US6004960A, “Pyridazinones as inhibitors of cyclooxygenase-2” (Merck Frosst Canada, Inc., priority 1998, dated 1999)
